Reference: patent US12698258B2, “Cystine cationic lipids” (Translate Bio, Inc., priority 2019, dated 2026)

Test system: hEPO protein expression
Assay: In vivo expression of hEPO after IM injection of lipid nanoparticle formulations with hEPO mRNA
Design: species or system BALB/c mice
Settings: lipid nanoparticles comprising the compound and hEPO mRNA; single intramuscular injection, 0.1 ug; hEPO in sera by ELISA; 24 hours after administration
Description: In embodiments, cationic lipids described herein can be used in the preparation of lipid nanoparticles according to methods known in the art. For example, suitable methods include methods described in international Publication No. WO 2018/089801, which is hereby incorporated by reference in its entirety.
Lipid nanoparticle formulations comprising human erythropoietin (hEPO) mRNA, Cationic Lipid, DMG-PEG2000, Cholesterol and DOPE were administered intramuscularly to study mRNA delivery and resultant hEPO expression. Male BALB/c mice at 6-8 weeks old are given a single injection of the LNP formulations into the gastrocnemius muscle at a dosage level of 0.1 ug. Blood samples were collected at 6 and 24 hours post-dose. hEPO protein expression levels were measured in the sera samples by ELISA and presented in FIG. 1.

Row | Structure (SMILES) | in vivo protein production resulting from the delivery of mRNA (FIG. 1)
1 | CCCCCCCC(C)COC(=O)CCN(CCC(=O)OCCCCCCCC(C)C)[C@@H](CSSC[C@@H](C(=O)OC(C)CN(CCCN(C)C)CCCN(C)C)N(CCC(=O)OCCCCCCCC(C)C)CCC(=O)OCC(C)CCCCCCC)C(=O)OC(C)CN(CCCN(C)C)CCCN(C)C (some centres unmarked) [Compound 3] | high levels of in vivo protein production
2 | CCCCCCCC(C)COC(=O)CCN(CCC(=O)OCCCCCCCC(C)C)[C@@H](CSSC[C@@H](C(=O)OCCOCCOCCOC)N(CCC(=O)OCCCCCCCC(C)C)CCC(=O)OCC(C)CCCCCCC)C(=O)OCCOCCOCCOC (some centres unmarked) [Compound 4] | high levels of in vivo protein production
